Measured values as given in patent EP0800503B1, “NOVEL TRIENOIC RETINOID COMPOUNDS AND METHODS” (LIGAND PHARMACEUTICALS, INC., priority 1994, dated 1996).
Where two headings read alike, the source gives them in different places.

What was measured:
RARα [1] = molecular target: T1, RARα (Homo sapiens, UniProt P10276); assay: Co-transfection assay; format: cell-based; settings: read-out: RARα Pot
T1 sequence (P10276 1-462): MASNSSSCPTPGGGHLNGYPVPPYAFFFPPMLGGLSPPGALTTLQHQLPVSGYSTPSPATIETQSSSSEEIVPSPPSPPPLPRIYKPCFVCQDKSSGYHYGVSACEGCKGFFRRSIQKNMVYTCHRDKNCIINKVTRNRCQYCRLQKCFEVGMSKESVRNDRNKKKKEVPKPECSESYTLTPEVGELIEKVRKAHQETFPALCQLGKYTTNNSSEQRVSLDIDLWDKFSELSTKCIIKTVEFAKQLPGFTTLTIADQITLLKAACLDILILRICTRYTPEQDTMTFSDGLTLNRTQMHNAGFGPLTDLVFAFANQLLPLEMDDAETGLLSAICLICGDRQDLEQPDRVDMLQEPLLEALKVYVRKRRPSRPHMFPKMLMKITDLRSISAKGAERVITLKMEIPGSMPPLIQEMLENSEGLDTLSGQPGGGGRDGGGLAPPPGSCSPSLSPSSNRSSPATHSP

RARβ = molecular target: T2, RARβ (Homo sapiens, UniProt P10826); assay: Co-transfection assay; format: cell-based; settings: read-out: RARβ Pot
T2 sequence (P10826 1-448 isoform P10826-2): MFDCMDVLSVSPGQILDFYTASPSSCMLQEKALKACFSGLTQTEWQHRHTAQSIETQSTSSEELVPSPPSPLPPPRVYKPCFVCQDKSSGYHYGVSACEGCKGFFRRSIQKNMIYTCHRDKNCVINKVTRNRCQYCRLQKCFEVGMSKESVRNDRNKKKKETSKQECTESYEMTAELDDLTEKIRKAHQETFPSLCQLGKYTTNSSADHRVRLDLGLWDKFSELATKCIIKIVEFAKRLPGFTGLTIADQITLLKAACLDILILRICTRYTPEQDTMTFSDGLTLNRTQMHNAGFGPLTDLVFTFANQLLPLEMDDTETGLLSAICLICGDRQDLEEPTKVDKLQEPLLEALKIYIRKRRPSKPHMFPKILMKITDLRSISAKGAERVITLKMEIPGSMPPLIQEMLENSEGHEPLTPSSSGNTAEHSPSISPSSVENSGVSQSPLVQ

RARγ = molecular target: T3, RARγ (Homo sapiens, UniProt P13631); assay: Co-transfection assay; format: cell-based; settings: read-out: RARγ Pot
T3 sequence (P13631 1-454): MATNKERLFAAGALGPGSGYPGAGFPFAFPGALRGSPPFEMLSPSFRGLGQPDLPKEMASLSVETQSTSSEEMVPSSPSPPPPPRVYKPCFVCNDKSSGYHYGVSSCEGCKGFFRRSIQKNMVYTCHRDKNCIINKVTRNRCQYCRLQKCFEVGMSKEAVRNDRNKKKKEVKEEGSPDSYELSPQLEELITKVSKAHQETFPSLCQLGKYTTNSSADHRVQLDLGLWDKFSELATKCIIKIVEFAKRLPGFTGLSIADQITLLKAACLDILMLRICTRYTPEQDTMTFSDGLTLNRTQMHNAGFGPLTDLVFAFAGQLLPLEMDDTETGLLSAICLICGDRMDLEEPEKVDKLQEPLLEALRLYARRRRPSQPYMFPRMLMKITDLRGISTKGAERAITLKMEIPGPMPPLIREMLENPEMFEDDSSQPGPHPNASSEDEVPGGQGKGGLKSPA

RXRα = molecular target: T4, RXRα (Homo sapiens, UniProt P19793); assay: Co-transfection assay; format: cell-based; settings: read-out: RXRα Pot
T4 sequence (P19793 1-462): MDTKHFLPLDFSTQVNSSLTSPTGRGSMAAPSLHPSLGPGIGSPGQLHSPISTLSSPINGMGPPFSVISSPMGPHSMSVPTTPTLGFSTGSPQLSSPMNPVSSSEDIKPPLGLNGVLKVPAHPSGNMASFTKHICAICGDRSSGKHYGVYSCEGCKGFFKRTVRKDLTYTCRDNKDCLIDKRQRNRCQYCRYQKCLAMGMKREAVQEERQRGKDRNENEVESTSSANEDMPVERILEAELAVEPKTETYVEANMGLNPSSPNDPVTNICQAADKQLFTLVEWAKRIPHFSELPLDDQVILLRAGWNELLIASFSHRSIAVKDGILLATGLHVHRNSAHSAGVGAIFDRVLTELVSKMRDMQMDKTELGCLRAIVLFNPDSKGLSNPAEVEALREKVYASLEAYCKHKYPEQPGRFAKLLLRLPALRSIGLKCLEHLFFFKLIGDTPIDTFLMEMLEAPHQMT

RXRβ = molecular target: T5, RXRβ (Mus musculus, UniProt P28704); assay: Co-transfection assay; format: cell-based; settings: read-out: RXRβ Pot
T5 sequence (P28704 1-520): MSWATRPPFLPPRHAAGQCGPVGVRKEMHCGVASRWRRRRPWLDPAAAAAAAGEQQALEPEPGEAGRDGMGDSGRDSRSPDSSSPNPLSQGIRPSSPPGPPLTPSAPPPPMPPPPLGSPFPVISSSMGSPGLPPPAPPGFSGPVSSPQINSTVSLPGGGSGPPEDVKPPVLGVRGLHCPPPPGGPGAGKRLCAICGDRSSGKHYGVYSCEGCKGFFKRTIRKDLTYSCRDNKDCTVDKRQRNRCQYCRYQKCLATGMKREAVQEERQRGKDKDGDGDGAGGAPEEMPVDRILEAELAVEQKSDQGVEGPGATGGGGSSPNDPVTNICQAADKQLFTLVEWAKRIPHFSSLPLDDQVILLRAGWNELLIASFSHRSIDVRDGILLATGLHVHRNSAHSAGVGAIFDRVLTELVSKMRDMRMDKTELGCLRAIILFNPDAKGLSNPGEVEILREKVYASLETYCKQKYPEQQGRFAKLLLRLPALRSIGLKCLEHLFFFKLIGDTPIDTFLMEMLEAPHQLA

RXRγ = molecular target: T6, RXRγ (Mus musculus, UniProt P28705); assay: Co-transfection assay; format: cell-based; settings: read-out: RXRγ Pot
T6 sequence (P28705 1-463): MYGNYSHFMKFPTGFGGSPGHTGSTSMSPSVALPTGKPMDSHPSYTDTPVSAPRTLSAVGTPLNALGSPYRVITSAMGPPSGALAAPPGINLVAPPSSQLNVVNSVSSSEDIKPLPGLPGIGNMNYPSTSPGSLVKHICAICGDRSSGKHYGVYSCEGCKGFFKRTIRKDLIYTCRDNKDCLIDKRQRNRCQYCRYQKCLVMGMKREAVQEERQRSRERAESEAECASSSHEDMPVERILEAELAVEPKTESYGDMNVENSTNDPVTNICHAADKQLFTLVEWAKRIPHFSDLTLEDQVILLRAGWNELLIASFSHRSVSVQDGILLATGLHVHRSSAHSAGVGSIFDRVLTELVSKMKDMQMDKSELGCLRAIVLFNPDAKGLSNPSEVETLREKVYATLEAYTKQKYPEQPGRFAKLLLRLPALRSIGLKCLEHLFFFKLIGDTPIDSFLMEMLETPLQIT

RARα [2] = molecular target: T1, RARα; assay: Receptor binding (competition with tritiated retinoids); settings: from IC50 by Cheng-Prussof equation
RPMI 8226 cell line = assay: Viability (tetrazolium dye, MTS); format: cell-based; settings: Homo sapiens, 96 hours, mitochondrial function / viability
ME 180 cell line = assay: Viability (tetrazolium dye, MTS); format: cell-based; settings: Homo sapiens, 96 hours, mitochondrial function / viability
AML-193 cell line = assay: Viability (tetrazolium dye, MTS); format: cell-based; settings: Homo sapiens, 96 hours, mitochondrial function / viability
TPA induction of ODC = assay: Ornithine decarboxylase (ODC) assay, inhibition of TPA induction of ODC; format: cell-based; settings: concentration required to inhibit the TPA induction of ODC by 80 percent

Compound | EC50 (RARα [1]) | EC50 (RARβ) | EC50 (RARγ) | EC50 (RXRα) | EC50 (RXRβ) | EC50 (RXRγ) | also measured
COc1ccc(/C(C)=C/C=C/C(C)=C/C(=O)O)cc1OC [A, (2E,4E,6E)-3-methyl-7-(3,4-dimethoxyphenyl)octa-2,4,6-trienoic acid, reference compound] | > 10000 nM | 1480 nM | > 10000 nM | > 10000 nM | > 10000 nM | > 10000 nM | Kd (RARα [2]): 312 nM
CC1=C(/C=C/C(C)=C/C=C/C(C)=C/C(=O)O)C(C)(C)CCC1 [ATRA, all-trans retinoic acid, reference compound] |  |  |  |  |  |  | IC50 (RPMI 8226 cell line): 756 nM; IC50 (ME 180 cell line): 890 nM; IC50 (AML-193 cell line): 1000 nM
COc1ccc(/C(C)=C/C=C/C(C)=C/C(=O)O)cc1 [B, (2E,4E,6E)-3-methyl-7-(4-methoxyphenyl)octa-2,4,6-trienoic acid, reference compound] | > 10000 nM | > 10000 nM | > 10000 nM | > 10000 nM | > 10000 nM | > 10000 nM | 
COc1cc(C)c(/C=C/C=C/C=C(\C)C(=O)O)c(C)c1C [C, (2E,4E,6E)-2-methyl-7-(2,3,6-trimethyl-4-methoxyphenyl)hepta-2,4,6-trienoic acid, reference compound] | > 10000 nM | > 10000 nM | > 10000 nM | > 10000 nM | > 10000 nM | > 10000 nM | 
CCOC(=O)/C=C(C)/C=C/C=C(\C)c1cc(C(C)(C)C)cc(C(C)(C)C)c1 [Compound 7, Ethyl (2E, 4E, 6E)-7-(3,5-di-t-butylphenyl)-3-methylocta-2,4,6-trienoate] |  |  |  |  |  |  | IC80 (TPA induction of ODC): 4.73 nM
CCOC(=O)/C=C(C)/C=C/C=C(/C)c1cc(C(C)(C)C)cc(C(C)(C)C)c1 [Compound 8, Ethyl (2E,4E, 6Z)-7-(3,5-di-t-butylphenyl)-3-methylocta-2,4,6-trienoate] |  |  |  |  |  |  | IC80 (TPA induction of ODC): 152 nM
CCC/C(=C/C=C/C(C)=C/C(=O)O)c1cc(C(C)(C)C)cc(C(C)(C)C)c1 [Compound 28, (2E, 4E, 6Z)-7-(3,5-di-t-butylphenyl)-3-methyldeca-2,4,6-trienoic acid] | > 10000 nM | > 10000 nM | > 10000 nM | 20 nM | 104 nM | 50 nM | 
CC(/C=C/C=C1\CCOc2c1cc(C(C)(C)C)cc2C(C)(C)C)=C\C(=O)O [Compound 39, (2E,4E,6E)-6-(6,8,-Di-t-butylchroman-4-ylidene)-3-methylhexa-2,4,6-trienoic acid] | 5 nM | 3 nM | 3 nM | > 10000 nM | > 10000 nM | > 10000 nM | 
(2E,4E,6Z)-3-Methyl-7-(3,4-diethyl-6-methylphenyl)nona-2,4,6-trienoic acid [Compound 54] |  |  |  |  |  |  | EC50 (RARα [1]; CV-1 cells, pRShRARα, D-MTV-LUC reporter, 40 hours, potency = EC50): > 10000 nM; EC50 (RARβ; CV-1 cells, pRShRARβ, D-MTV-LUC reporter, 40 hours, potency = EC50): 130 nM; EC50 (RARγ; CV-1 cells, pRShRARγ, D-MTV-LUC reporter, 40 hours, potency = EC50): 320 nM; EC50 (RXRα; CV-1 cells, pRShRXRα, CRBPIIFKLUC reporter, 40 hours, potency = EC50): 58 nM; EC50 (RXRβ; CV-1 cells, pRSmRXRβ, CRBPIIFKLUC reporter, 40 hours, potency = EC50): 28 nM; EC50 (RXRγ; CV-1 cells, pRSmRXRγ, CRBPIIFKLUC reporter, 40 hours, potency = EC50): 78 nM

Continued, in another order:

EC50 (RARα [1]) | EC50 (RARβ) | EC50 (RARγ) | EC50 (RXRα) | EC50 (RXRβ) | EC50 (RXRγ) | Compound | also measured
3 nM | 1 nM | 4 nM | 2010 nM | 266 nM | 2180 nM | CC(/C=C/C=C(\C)c1cc(C(F)(F)F)cc(C(F)(F)F)c1)=C\C(=O)O [Compound 41, (2E, 4E, 6E)-7-(3,5-Di-trifluoromethylphenyl)-3-methylocta-2,4,6-trienoic acid] | 
65 nM | 22 nM | 16 nM | 27 nM | 27 nM | 19 nM | C/C(=C/C=C/C(C)=C/C(=O)O)c1cc(C(C)C)cc(C(C)C)c1 [Compound 43, (2E, 4E, 6Z)-7-(3,5-Di-isopropylphenyl)-3-methylocta-2,4,6-trienoic acid] | 
> 10000 nM | 1 nM | 1 nM | > 10000 nM | > 10000 nM | > 10000 nM | COc1c(C(C)(C)C)cc(/C(C)=C/C=C/C(C)=C/C(=O)O)cc1C(C)(C)C [Compound 47, (2E, 4E, 6E) -3-Methyl-7-(3,5-di-t-butyl-4-methoxyphenyl)octa-2,4,6-trienoic acid] | 
> 10000 nM | > 10000 nM | > 10000 nM | > 10000 nM | > 10000 nM | > 10000 nM | COC(/C=C/C=C(\C)c1ccc(C(C)(C)C)cc1)=C/C(=O)O [D, (2E,4E,6E)-3-methoxy-7-(4-t-butylphenyl)octa-2,4,6-trienoic acid, reference compound] | 
